Measured values taken from patent publication US9518065B2, “IRAK inhibitors and uses thereof” (NIMBUS IRIS, INC., priority 2013, dated 2016).
Where two headings read alike, the source gives them in different places.

How the values were obtained:
[1] = tested on: TNFα and IL8 production in THP-1 cells; experiment: LPS induced cytokine (TNFα and IL8) production assay in THP-1 cells; format: cell-based; settings: Homo sapiens, 300 ng/mL LPS
Protocol: Provided compounds were also assayed in an LPS (Lipopolysacharide) or R848 (TLR-7 agonist) induced cytokine (TNFα and IL8) production assay in THP-1 cells, human white blood cells (hWBC), and whole blood. The exemplary protocol for this assay in THP-1 cells was as follows below.
THP-1 cells from ATCC (TIB-202) were cultured in RPMI Medium 1640 (Invitrogen, Cat No. A10491-01), 10% fetal bovine serum (Invitrogen, Cat No. 10099141, Lot No. 8172882) containing 100 U/mL Penicillin, 100 μg/mL streptomycin (Invitrogen, Cat No. 15140-122), and 50 uM 2-Mercaptoethanol (Invitrogen, Cat No. 21985023). LPS-EK ultra pure (Invivogen, Cat No. tlrl-peklps) was used to induce IL8 and TNFα production, that was detected in the cell culture supernatant by IL8 HTRF kit (Cisbio, Cat No. 62IL8PEB) and TNFα HTRF kit (Cisbio, Cat No. 62TNFPEB), as per manufacturer instructions. Cells were cultured in 96 well assay plates at 100,000 cells per well, and compounds diluted in final 0.3% DMSO were pre-incubated with cells for 1 hour prior to stimulation with 300 ng/mL LPS. Cytokine production in cell supernatant was measured at 5 hours for TNFα and IL8 production, and for 16 hours for IL8 production and assessment of cell viability.
The compound numbers correspond to the compound numbers in Table 1. […] “NA” stands for “not assayed.”

IRAK4 = target: T1, IRAK4 (Homo sapiens, UniProt Q9NWZ3); experiment: IRAK-4 activity inhibition assay (Caliper); format: biochemical; settings: 3.5 nM IRAK4, 37 μM ATP, 1.5 μM Peptide 8
T1 construct: purchased CARNA Bioscience 09-145
T1 sequence (Q9NWZ3 1-460): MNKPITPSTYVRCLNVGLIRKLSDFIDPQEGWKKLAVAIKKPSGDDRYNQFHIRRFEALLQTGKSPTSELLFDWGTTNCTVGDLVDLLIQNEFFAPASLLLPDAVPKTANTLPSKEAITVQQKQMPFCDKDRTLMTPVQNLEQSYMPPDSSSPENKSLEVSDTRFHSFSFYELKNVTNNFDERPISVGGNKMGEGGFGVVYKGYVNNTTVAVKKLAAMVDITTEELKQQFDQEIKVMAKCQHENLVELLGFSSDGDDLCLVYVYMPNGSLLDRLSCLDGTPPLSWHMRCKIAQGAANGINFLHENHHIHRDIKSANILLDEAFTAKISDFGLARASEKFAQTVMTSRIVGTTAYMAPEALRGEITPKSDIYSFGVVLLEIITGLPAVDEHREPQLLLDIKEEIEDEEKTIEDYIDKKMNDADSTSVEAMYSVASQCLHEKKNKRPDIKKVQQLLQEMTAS
Protocol: A 1× kinase base buffer was prepared from 50 mM HEPES, pH 7.5 and 0.0015% Brij-35. A stop buffer was prepared from 100 mM HEPES, pH 7.5, 0.015% Brij-35, 0.2% Coating Reagent #3, and 50 mM EDTA.
Test compound was diluted to 50× of the final desired highest inhibitor concentration in reaction by 100% DMSO. 100 ul of this compound dilution was transferred to a well in a 96-well plate. For example, if desired highest inhibitor concentration in IC50 determination is 100 uM, then prepare 5000 uM of compound DMSO solution in this step.
Test compound was serially diluted by transferring 30 μl to 60 μl of 100% DMSO in the next well and so forth for a total of 10 concentrations. 100 μl of 100% DMSO was added to two empty wells for no compound control and no enzyme control in the same 96-well plate.
A new 96-well plate was marked as intermediate plate. 5 μl of compound serial dilution was transferred from source plate to the corresponding wells of the intermediate plate. 45 μl of 1× kinase base buffer (KB buffer) was added to each well of the intermediate plate. The intermediate plate was placed for 10 min on a shaker.
5 μl of each well was transferred from the 96-well intermediate plate to a 384-well plate in duplicates. For example, A1 of the 96-well plate is transferred to A1 and A2 of the 384-well plate. A2 of the 96-well plate is transferred to A3 and A4 of the 384-well plate, and so on.
IRAK4 and DTT in 1× kinase base buffer was added. The 2.5× enzyme mix contained 8.8 nM IRAK4 and 5 mM DTT.
Peptide 8, ATP, MgCl2 and MnCl2 were added in the 1× kinase base buffer. The 2.5× peptide mix contained 3.75 μM peptide 8, 92.5 μM ATP, 12.5 mM MgCl2 and 2.5 mM MnCl2.
Assay plate already contained 5 μl of compound in 10% DMSO. Added 10 μl of 2.5× enzyme solution to each well of the 384-well assay plate, except no enzyme control wells. The final concentration of IRAK4 in reaction was 3.5 nM. Added 10 μl of 1× kinase base buffer to no enzyme control wells in the assay plate. Incubated at room temperature for 10 min.
Added 10 μl of 2.5× peptide solution to each well of the 384-well assay plate. The final concentration of Peptide 8 and ATP was 1.5 μM and 37 μM, respectively. Incubated at 28° C. for 40 minutes. Added 25 μl of stop buffer to stop reaction. Collected data on Caliper.
Copied conversion % data from Caliper program. Converted conversion % values to percent inhibition values. Percent inhibition=(max-conversion %)/(max-min)*100, where “max” means the conversion % of DMSO control and “min” means the conversion % of no enzyme control.
The compound numbers correspond to the compound numbers in Table 1. Compounds having an activity designated as “A” provided an IC50≦1 μM; compounds having an activity designated as “B” provided an IC50 of 1-5 μM; compounds having an activity designated as “C” provided an IC50 of ≧5 μM. “NA” stands for “not assayed.”

[2] = 5 hours, read-out: TNFα production IC50
[3] = 16 hours, read-out: IL8 (16 h) production IC50

## CCc1nc2c(N[C@H]3CC[C@H](N4CCC5(CC4)CC5)CC3)nc(Nc3cnn(C4CCOCC4)c3)nc2s1 [Compound I-23, N7-((1r,4r)-4-(6-azaspiro[2.5]octan-6-yl)cyclohexyl)-2-ethyl-N5-(1-(tetrahydro-2H-pyran-4-yl)-1H-pyrazol-4-yl)thiazolo[5,4-d]pyrimidine-5,7-diamine]
[1]; [2]
  IC50: 250 to 500 nM
[1]; [3]
  IC50: ≤ 250 nM
IRAK4
  IC50: ≤ 1000 nM

## Cc1nc2c(N[C@H]3CC[C@H](N4CCOCC4)CC3)nc(Nc3cnn(C4CCOCC4)c3)nc2s1 [Compound I-25, 2-methyl-N7-((1r,4r)-4-morpholinocyclohexyl)-N5-(1-(tetrahydro-2H-pyran-4-yl)-1H-pyrazol-4-yl)thiazolo[5,4-d]pyrimidine-5,7-diamine]
[1]; [2]
  IC50: ≤ 250 nM
[1]; [3]
  IC50: ≤ 250 nM
IRAK4
  IC50: ≤ 1000 nM

## CCc1nc2c(O[C@H]3CC[C@H](N4CCOCC4)CC3)nc(Nc3cnn(C4CCOCC4)c3)nc2s1 [Compound I-26, 2-ethyl-7-(((1r,4r)-4-morpholinocyclohexyl)oxy)-N-(1-(tetrahydro-2H-pyran-4-yl)-1H-pyrazol-4-yl)thiazolo[5,4-d]pyrimidin-5-amine]
[1]; [2]
  IC50: ≤ 250 nM
[1]; [3]
  IC50: ≤ 250 nM
IRAK4
  IC50: ≤ 1000 nM

## CCc1nc2c(N[C@H]3CC[C@H](N4CCOCC4)CC3)nc(Nc3cnn(CCCS(C)(=O)=O)c3)nc2s1 [Compound I-27, 2-ethyl-N5-(1-(3-(methylsulfonyl)propyl)-1H-pyrazol-4-yl)-N7-((1r,4r)-4-morpholinocyclohexyl)thiazolo[5,4-d]pyrimidine-5,7-diamine]
[1]; [2]
  IC50: 250 to 500 nM
[1]; [3]
  IC50: ≤ 250 nM
IRAK4
  IC50: ≤ 1000 nM

## CCc1nc2c(N[C@H]3CC[C@H](N4CCOCC4)CC3)nc(Nc3cnn(CCOCCO)c3)nc2s1 [Compound I-28, 2-(2-(4-((2-ethyl-7-(((1r,4r)-4-morpholinocyclohexyl)amino)thia-zolo[5,4-d]pyrimidin-5-yl)amino)-1H-pyrazol-1-yl)ethoxy)ethan-1-ol]
[1]; [2]
  IC50: 250 to 500 nM
[1]; [3]
  IC50: ≤ 250 nM
IRAK4
  IC50: ≤ 1000 nM

## CCc1nc2c(N[C@H]3CC[C@H](N4CCOCC4)CC3)nc(Nc3cnn(CCO)c3)nc2s1 [Compound I-29, 2-(4-((2-ethyl-7-(((1r,4r)-4-morpholinocyclohexyl)-amino)thiazolo[5,4-d]pyrimidin-5-yl)amino)-1H-pyrazol-1-yl)ethan-1-ol]
[1]; [2]
  IC50: ≥ 500 nM
[1]; [3]
  IC50: ≤ 250 nM
IRAK4
  IC50: ≤ 1000 nM

## Cc1nc2c(N[C@H]3CC[C@H](N4CCC(O)CC4)CC3)nc(Nc3cnn(C)c3)nc2s1 [Compound I-30, 1-((1r,4r)-4-((2-methyl-5-((1-methyl-1H-pyrazol-4-yl)amino)thiazolo[5,4-d]pyrimidin-7-yl)amino)cyclohexyl)piperidin-4-ol]
[1]; [2]
  IC50: ≥ 500 nM
IRAK4
  IC50: ≤ 1000 nM

## CCc1nc2c(N[C@H]3CC[C@H](N4CCOCC4)CC3)nc(Nc3cnn(C4CCC(O)CC4)c3)nc2s1 (some centres unmarked) [Compound I-32, 4-(4-((2-ethyl-7-(((1r,4r)-4-morpholinocyclohexyl)-amino)thiazolo[5,4-d]pyrimidin-5-yl)amino)-1H-pyrazol-1-yl)cyclohexan-1-ol]
[1]; [2]
  IC50: ≤ 250 nM
[1]; [3]
  IC50: ≤ 250 nM
IRAK4
  IC50: ≤ 1000 nM

## CCc1nc2c(N[C@H]3CC[C@H](N4CCC5(CC4)CC5)CC3)nc(Nc3cnn(CCOCCO)c3)nc2s1 [Compound I-33, 2-(2-(4-((7-(((1r,4r)-4-(6-azaspiro[2.5]octan-6-yl)cyclohexyl)-amino)-2-ethylthiazolo[5,4-d]pyrimidin-5-yl)amino)-1H-pyrazol-1-yl)ethoxy)ethan-1-ol]
[1]; [2]
  IC50: ≤ 250 nM
[1]; [3]
  IC50: ≤ 250 nM
IRAK4
  IC50: ≤ 1000 nM

## CCc1nc2c(N[C@H]3CC[C@H](N4CCOCC4)CC3)nc(Nc3cnn(CCOC)c3)nc2s1 [Compound I-34, 2-ethyl-N5-(1-(2-methoxyethyl)-1H-pyrazol-4-yl)-N7-((1r,4r)-4-morpholinocyclohexyl)thiazolo[5,4-d]pyrimidine-5,7-diamine]
[1]; [2]
  IC50: ≤ 250 nM
[1]; [3]
  IC50: ≤ 250 nM
IRAK4
  IC50: ≤ 1000 nM
